# Earlier results, collected in patent publication US20240173233A1, “COSMETIC SACHET FOR REDUCING AGE-RELATED SYMPTOMS IN HUMAN SKIN” (Bloo Pharmapeutica Inc., priority 2022, published 2024).
# Tests used:
# [1] = system: cultured human skin fibroblasts derived from healthy donors and from patients with progeria
# elastin and collagen 2A1 = conditions: MB treatment of skin
# skin fibroblast = conditions: in comparison with other widely used general and mitochondrial-targeting antioxidants
structure (smiles),measurement,setting,value
"CN(C)c1ccc2nc3ccc(=[N+](C)C)cc-3sc2c1.[Cl-] [methylene blue, [7-(dimethylamino)phenothiazine-3-ylidene]-dimethylazanium chloride]",reactive oxygen species (ROS) scavenging efficacy,[1],potent reactive oxygen species (ROS) scavenging efficacy
same,dermis thickness,3D skin model,increased skin hydration and dermis thickness
same,skin hydration,3D skin model,increased skin hydration
same,skin viability,3D skin model,improved skin viability
same,wound healing,3D skin model,promoted wound healing
same,expression of extracellular matrix proteins,elastin and collagen 2A1,upregulation of elastin and collagen 2A1
same,delaying cellular senescence,skin fibroblast,more effective
same,stimulating skin fibroblast proliferation,skin fibroblast,more effective
